Test results from patent publication US9258995B2, “Organ cold storage composition and methods of use” (BOARD OF TRUSTEES OF THE UNIVERSITY OF ARKANSAS, priority 2009, dated 2016).

Experiments:
[1] = test system: NRK cells; assay: MitoSOX Red mitochondrial superoxide generation, cold storage in vitro model; assay type: cell-based, rat; settings: 4 h CS at 4° C. in UW, 1 μM
Experimental: Normal rat kidney proximal tubular cells (NRK-52E; American Type Culture Collection, Manassas, Va.) were maintained in six-well 100 or 150-mm, or 150-mm plates in a humidified incubator gassed with 5% CO2 and 95% air at 37° C. in DMEM (Invitrogen, Carlsbad, Calif.) containing 5% fetal calf serum (FCS). Cells were grown to 60% confluence and divided into four treatment groups: 1) untreated (Untx), 2) CS, 3) CS+MitoQ, and 4) CS+DecylTPP. Untreated cells remained at 37° C. in DMEM containing 5% FCS (group 1). […]
MitoSOX Red (Invitrogen) was used to measure mitochondrial superoxide generation during CS. […] Fluorescence was visualized using an Eclipse E800 microscope (Nikon, Melville, N.Y.) with a rhodamine filter using a water immersion objective (60×). Fluorescent images of NRK cells were captured with equal exposure times and quantified by averaging the mean intensity fluorescence of five random cells in three different fields using Nikon N is Elements software. In separate experiments, cells were grown on coverslips, preloaded with MitoSOX Red before treatment (groups 1-4), and evaluated for mitochondrial superoxide generation using a Hitachi F-2500 spectrofluorometer (Hitachi, Tokyo, Japan) equipped with a coverslip holder using two different excitation wavelengths: 396 and 510 nm with the emission measured at 580 nm as previously described. […]

[2] = test system: NRK cells; assay: LDH cytotoxicity assay, CS and CS plus rewarming; assay type: cell-based; settings: 1 μM
Experimental: (§1) Normal rat kidney proximal tubular cells (NRK-52E; American Type Culture Collection, Manassas, Va.) were maintained in six-well 100 or 150-mm, or 150-mm plates in a humidified incubator gassed with 5% CO2 and 95% air at 37° C. in DMEM (Invitrogen, Carlsbad, Calif.) containing 5% fetal calf serum (FCS). Cells were grown to 60% confluence and divided into four treatment groups: 1) untreated (Untx), 2) CS, 3) CS+MitoQ, and 4) CS+DecylTPP. Untreated cells remained at 37° C. in DMEM containing 5% FCS (group 1). CS was initiated by washing cells with cold PBS (Invitrogen) twice and storing them in UW/Viaspan solution alone (4 h at 4° C.) (group 2), CS+MitoQ (1 μM) (group 3), or CS+DecylTPP (1 μM) (group 4). In separate experiments, cells were exposed to CS plus RW by replacing UW solution alone or UW solution containing MitoQ or DecylTPP with DMEM containing 5% FCS overnight (18 h at 37° C.).
Cell cytotoxicity was determined using the LDH-Cytotoxicity Assay Kit II (Biovision Research Products, Mountain View, Calif.) according to the manufacturer's instructions. Absorbance was measured at 450 nm using a SpectraMax 190 microplate reader and SpectraMax software (Molecular Devices, Sunnyvale, Calif.). Renal cell death was determined using TUNEL staining. Kidney sections were deparaffinized, rehydrated, and exposed to antigen retrieval (20-min incubation at 95° C. with 10 mM sodium citrate buffer, pH 6.0) followed by washing with distilled water and quenching of endogenous peroxidase. Sections were immersed in TdT labeling buffer and then incubated in a humidified chamber with the labeling reaction mix from the TAGS 2 TdT-DAB In Situ Apoptosis Detection kit (Trevigen, Inc., Gaithersburg, Md.) for 1 h at room temperature. The reaction was stopped with TdT stop buffer, and slides were subsequently washed with PBS. Sections were incubated for 10 min with streptavidin-HRP followed by development with diaminobenzidine solution, counterstaining with Mayer's hematoxylin, dehydration, and mounting with Cytoseal-60. The amount of cell death was calculated by averaging the number of cells positive for TUNEL (brown staining) in 10 different fields (cortex and medulla) (20×). All images were taken at equal exposure times (40×oil).

[3] = test system: rat kidneys; assay: TUNEL staining of renal cell death during CS; settings: 4 h CS, 100 μM
Experimental: All animals were treated according to the National Institutes of Health Guide for the Care and Use of Laboratory Animals and the University of Arkansas for Medical Sciences Institutional Animal Care and Use Committee guidelines. Male Fischer 344 inbred rats (Charles Rivers Laboratories, Inc., Wilmington, Mass.) weighing between 250 and 300 g were anesthetized with ethrane, followed by shaving and prepping with betadine. […] Bulldog clamps were placed on the aorta and vena cava (proximal and distal to the renal vessels) to prevent blood flow to the kidneys. A 22-gauge surgical needle was used to puncture the rat's aorta to flush the renal grafts with saline (10 ml per kidney) using a small catheter. Once the kidneys started to turn light brown (perfusion), another vent was formed in the vena cava to allow blood flow from the kidneys. […]
Cell cytotoxicity was determined using the LDH-Cytotoxicity Assay Kit II (Biovision Research Products, Mountain View, Calif.) according to the manufacturer's instructions. Absorbance was measured at 450 nm using a SpectraMax 190 microplate reader and SpectraMax software (Molecular Devices, Sunnyvale, Calif.). Renal cell death was determined using TUNEL staining. […] The amount of cell death was calculated by averaging the number of cells positive for TUNEL (brown staining) in 10 different fields (cortex and medulla) (20×). […]

[4] = test system: rat kidneys; assay: Periodic acid-Schiff morphological assessment of renal injury during CS; settings: 4 h CS, 100 μM
Experimental: (§2) All animals were treated according to the National Institutes of Health Guide for the Care and Use of Laboratory Animals and the University of Arkansas for Medical Sciences Institutional Animal Care and Use Committee guidelines. Male Fischer 344 inbred rats (Charles Rivers Laboratories, Inc., Wilmington, Mass.) weighing between 250 and 300 g were anesthetized with ethrane, followed by shaving and prepping with betadine. […] Bulldog clamps were placed on the aorta and vena cava (proximal and distal to the renal vessels) to prevent blood flow to the kidneys. A 22-gauge surgical needle was used to puncture the rat's aorta to flush the renal grafts with saline (10 ml per kidney) using a small catheter. Once the kidneys started to turn light brown (perfusion), another vent was formed in the vena cava to allow blood flow from the kidneys. Once both kidneys were completely flushed, the right kidney was recovered and served as a control (group 1), and the left kidney was exposed to CS alone for 4 h at 4° C. […]
Renal sections were assessed for tissue injury using the periodic acid-Schiff reaction. […] Morphological evaluation of tubular dilation, brush border loss, and cellular debris/tubular cast formation were performed blindly with light microscopy and assessed semiquantitatively according to the following scoring system: 0, no changes; 1, mild changes; 2, moderate changes, and 3, severe changes.

[5] = test system: mitochondrial respiratory complex II; assay: Mitochondrial respiratory complex activity, rat kidney mitochondria after CS; settings: rat kidneys, 4-h CS, 100 μM
Experimental: (§3) All animals were treated according to the National Institutes of Health Guide for the Care and Use of Laboratory Animals and the University of Arkansas for Medical Sciences Institutional Animal Care and Use Committee guidelines. Male Fischer 344 inbred rats (Charles Rivers Laboratories, Inc., Wilmington, Mass.) weighing between 250 and 300 g were anesthetized with ethrane, followed by shaving and prepping with betadine. […] Bulldog clamps were placed on the aorta and vena cava (proximal and distal to the renal vessels) to prevent blood flow to the kidneys. A 22-gauge surgical needle was used to puncture the rat's aorta to flush the renal grafts with saline (10 ml per kidney) using a small catheter. Once the kidneys started to turn light brown (perfusion), another vent was formed in the vena cava to allow blood flow from the kidneys. Once both kidneys were completely flushed, the right kidney was recovered and served as a control (group 1), and the left kidney was exposed to CS alone for 4 h at 4° C. (group 2). In additional experiments, kidneys were flushed with saline through the aorta using a small catheter followed by flushing the right kidney with saline containing MitoQ (100 μM) and the left kidney with saline containing DecylTPP (100 μM) (10 ml per kidney). Tissues were recovered and stored in CS+MitoQ (100 μM; right kidney) or CS+DecylTPP (100 μM; left kidney) for 4 h at 4° C. (groups 3 and 4, respectively). A thin middle section from all of the kidneys were cut and immediately fixed in 10% formalin before being embedded in paraffin for sectioning (4 μm) and histological evaluation. The remaining portion of the kidneys were quickly frozen in liquid nitrogen and stored in −80° C. until needed for biochemistry analyses.
(§4) NRK cell and rat kidney mitochondria were isolated by centrifugation on a sucrose density gradient. The activity of mitochondrial respiratory complexes I, II, III, or IV were assayed spectrophotometrically using 100 μg of mitochondrial protein at 30° C. as previously described.

[6] = test system: mitochondrial respiratory complex I; assay: as above; settings: rat kidneys, 4-h CS, 100 μM
Experimental: as §3, §4

[7] = test system: NRK cells; assay: Nitrotyrosine immunocytochemistry, CS plus rewarming; assay type: cell-based, rat; settings: 4-h CS plus overnight (18 h) RW, 1 μM added during CS
Experimental: as §1
(§5) NRK cells (groups 1-4) were assessed for nitrotyrosine formation as previously described. […] Nitrotyrosine staining was evaluated and captured with equal exposure times using a Nikon Eclipse 800 microscope (40×oil). Images were quantified by averaging the mean intensity fluorescence of five random cells in three different fields using Nikon N is Elements software. Renal tissue sections were assessed for the presence of nitrotyrosine protein adducts by nitrotyrosine immunohistochemistry. […]

[8] = test system: mitochondrial respiratory complex II; assay: Mitochondrial respiratory complex activity, NRK cell mitochondria after CS; assay type: cell-based, rat; settings: NRK cells, 4-h CS, 1 μM
Experimental: as §1, §4

[9] = test system: mitochondrial respiratory complex I; assay: as above; assay type: cell-based, rat; settings: NRK cells, 4-h CS, 1 μM
Experimental: as §1, §4

[10] = test system: rat kidneys; assay: MitoSOX Red mitochondrial superoxide generation, cold storage ex vivo model; settings: rat kidneys, 4 h CS at 4° C., 100 μM
Experimental: as §2, with “C. (group 2). In additional experiments, kidneys were flushed with saline through the aorta using a small catheter followed by flushing the right kidney with saline containing MitoQ (100 μM) and the left kidney with saline containing DecylTPP (100 μM) (10 ml per kidney). Tissues were recovered and stored in CS+MitoQ (100 μM; right kidney) or CS+DecylTPP (100 μM; left kidney) for 4 h at 4° C. (groups 3 and 4, respectively).” for “C.”
MitoSOX Red (Invitrogen) was used to measure mitochondrial superoxide generation during CS. […] Fluorescence was visualized using an Eclipse E800 microscope (Nikon, Melville, N.Y.) with a rhodamine filter using a water immersion objective (60×). Fluorescent images of NRK cells were captured with equal exposure times and quantified by averaging the mean intensity fluorescence of five random cells in three different fields using Nikon N is Elements software. In separate experiments, cells were grown on coverslips, preloaded with MitoSOX Red before treatment (groups 1-4), and evaluated for mitochondrial superoxide generation using a Hitachi F-2500 spectrofluorometer (Hitachi, Tokyo, Japan) equipped with a coverslip holder using two different excitation wavelengths: 396 and 510 nm with the emission measured at 580 nm as previously described. In addition, rat kidneys were monitored for mitochondrial superoxide generation by flushing kidneys with saline through the aorta using a small catheter as described under Cold Storage Ex Vivo Model, followed by saline containing MitoSOX Red (5 μM; 10 ml/kidney) before treatment (groups 1-4). Paraffin sections were analyzed using the rhodamine filter on the Nikon Eclipse 800 microscope (20×).

[11] = test system: NRK cells; assay: Nitrotyrosine immunocytochemistry during CS; assay type: cell-based, rat; settings: 4 h CS, 1 μM
Experimental: as §1, §5

[12] = test system: NRK cells; settings: 24 h CS of NRK cells; cited from earlier work

SMILES	CS-induced mitochondrial superoxide generation (MitoSOX Red) [1]	effect on cell death (LDH cytotoxicity) ([2]; CS alone)	effect on cell death (LDH cytotoxicity) ([2]; CS.RW)	protection against cell death (TUNEL) [3]	renal histology / renal injury (periodic acid-Schiff staining) [4]	complex II inactivation [5]	complex I inactivation [6]	nitrotyrosine staining during CS.RW [7]	complex II inactivation [8]	complex I inactivation [9]	mitochondrial superoxide generation (MitoSOX Red) [10]	effect on CS-mediated nitrotyrosine formation [11]	nitrotyrosine staining (one marker of peroxynitrite) [12]
CCCCCCCCCC[P+](c1ccccc1)(c1ccccc1)c1ccccc1.[Br-] [DecylTPP, decyltriphenylphosphonium bromide, reference compound]	did not offer any protection	did not reduce	did not reduce	no protective benefits	did not reverse renal injury	did not have any effect	did not have any effect	no effect	no significant effect	no significant effect	comparable levels of mitochondrial superoxide to kidneys exposed to CS alone	did not decrease	–
CNC(=N)NCCC[C@H](N)C(=O)O.O=C(O)CC(O)(CC(=O)O)C(=O)O [N^5-[imino(methylamino)methyl]-L-ornithine citrate]	–	–	–	–	–	–	–	–	–	–	–	–	inhibited
